The source of these data is US3962449A, “Cardioactive bispidones and bispidines” (priority 1974, dated 1976).

Molecules are shown by their SMILES. Read-outs that look alike come from different tables or passages of the source.

Data set [1] deals with experimentally induced heart rhythm disturbances (aconitine) in rats. Briefly: Aconitine-induced heart rhythm disturbances in rats, intravenous pre-treatment. The class given is in vivo, rat. The conditions noted are these: for ED25 / ED50: Rattus norvegicus, iv; for occurrence of heart rhythm disturbances on pre-treatment: aconitine continuously infused intravenously. An excerpt: If rats are continuously infused intravenously with aconitine, then serious disturbances of the cardiac rhythm such as extrasystole, ventricular tachycardia, and ventricular flutter, which finally lead to the death of the experimental animals, can be observed on an electrocardiogram. […] This experimental arrhythmic model is checked by means of clinically tested standard therapeutic compounds as to its reliability and is well suited for characterizing antiarrhythmical compounds in experiments on animals [cf. for example, Bianci et al., Arzneim.-Forsch. 18, 845- 850 (1968); Haas und Busch, Arzneim.-Forsch. 18, 401- 407 (1968); Haas et al., Arzneim.-Forsch.21, 1392- 1399 (1971); Marmo, Naunyn-Schmiedeberg's Arch. Pharmakol. 269, 231- 247 (1971); and Strubelt et al., Naunyn-Schmiedeberg's Arch. Pharmakol. 271, 346- 360 (1971.]
The ED25 or ED50 are the intravenous dosages in mg/kg which allow an increase in administered aconitine doses, relative to the control, by 25 or 50%, respectively, before the occurrence of extrasystoles, ventricular tachycardia, and ventricular flutter.

Data set [2] relates to left auricle of the heart of guinea pigs. Put plainly: Functional refractory period and contractility of the isolated left auricle (paired electrical stimulation, adapted from Govier). The class given is cell-based, guinea pig. Further details: Anti-arrhythmic effect (Refractory period extension) ED25 / Inotropic effect (Contraction force lowering) ED25: unit not given here. Particulars: for Anti-arrhythmic effect (Refractory period extension) ED25: effective dose which extends the refractory period by 25%; for Anti-arrhythmic effect (Refractory period extension) ED25 / Inotropic effect (Contraction force lowering) ED25: guinea pig left auricle, up to 30 minutes; for Inotropic effect (Contraction force lowering) ED25: effective dose which lowers the contractional force by 25%; for Therapeutic Breadth (III/II): ratio of inotropic ED25 to anti-arrhythmic ED25. An excerpt:
The experimental procedure utilized paired electrical stimulation in an adaptation of the method of […]. Pharmacol. Exp. […] In this model, the numerous known anti-arrhythmical preparations of differing structure and point of therapeutic attack all show an prolongation of the functional refractory period. The experiment additionally permits a study of the effects of different substances on the contractility of the heart muscles [Reuter und Heeg, Naunyn, Naunyn-Schmiedeberg's Arch. Pharmakol. […] Pharmakol. […] Therefore the experiment is suitable for discovering which substances have the greatest therapeutic range, that is to say, which have the greatest safety margin between the anti-arrhythmic and the negatively inotropically effective dosages. To test the substances, up to 18 and 30 individual experiments were carried out in each case. At least 3 dosages were tested each on 6 auricle preparations and the linear regression functions were calculated[[…] In column II, the […] shown and in column III, the inotropic effect is shown. In column IV, the therapeutic range of the compounds is shown.

For data set [3] the following is noted: difference between doses producing an anti-arrhythmic effect and a negative inotropic effect; cited from earlier work.
[4] abbreviates: read-out: Ventricular Tachycardia ED25.
Setting [5] is: read-out: Ventricular Tachycardia ED50.
Where [6] appears, read: read-out: Ventricular flutter ED25.
Where [7] appears, read: read-out: Ventricular flutter ED50.

Consider `C1CCN2CC3CC(CN4CCCCC34)C2C1` (single isomer, unassigned) [Spartein, reference compound], for which the ED25 in data set [1] (setting [4]) came out at 4.43 mg/kg. In addition, in data set [1] (setting [5]), the median effective dose (ED50) (usually the midpoint of the dose-response relation) amounted to 9.55 mg/kg. For the same compound, in data set [1] (intravenous, dose allowing 25% increase in aconitine dose relative to control before extrasystoles, rats), the “Extrasystoles ED25” value is “+)”. Also, the “Ventricular flutter ED25” value in data set [1] (intravenous, dose allowing 25% increase in aconitine dose relative to control before ventricular flutter, rats) is on record as “+)”. For the same compound, in data set [1] (intravenous, dose allowing 50% increase in aconitine dose relative to control before extrasystoles, rats), the “Extrasystoles ED50” value is “+)”. In addition, the “Ventricular flutter ED50” value in data set [1] (intravenous, dose allowing 50% increase in aconitine dose relative to control before ventricular flutter, rats) is “+)”.
As for `c1ccc(CN(CC2=NCCN2)c2ccccc2)cc1` [Antazolin], in data set [2], the “Anti-arrhythmic effect (Refractory period extension) ED25” value (“Anti-arrhythmic effect” for short) was 0.164, the “Inotropic effect (Contraction force lowering) ED25” value is given as 0.094 and the “Therapeutic Breadth (III/II)” value came out at 0.6. Besides, the therapeutic range result in data set [3] is given as “narrow therapeutic range”.
As to `CCN(CC)CC(=O)Nc1c(C)cccc1C` [Lidocain], in data set [2], the “Anti-arrhythmic effect” value is reported as 0.47, the “Inotropic effect (Contraction force lowering) ED25” value is 0.48 and the “Therapeutic Breadth (III/II)” value is on record as 1.0. The therapeutic range result in data set [3] is on record as “narrow therapeutic range”.
Consider `c1ccc(CN2CC3CC(C2)CN(Cc2ccccc2)C3)cc1` [N,N'-dibenzyl-bispidine, N,N'-dibenzylbispidine], for which, in data set [2], the “Anti-arrhythmic effect” value was found to be 0.034. Also, in data set [2], the “Inotropic effect (Contraction force lowering) ED25” value is 0.07. In addition, the “Therapeutic Breadth (III/II)” value in data set [2] worked out at 2.0. Also, the ED25 stood at 1.06 mg/kg in data set [1] (read-out: Extrasystoles ED25), 0.87 mg/kg in data set [1] (setting [4]) and 1.03 mg/kg in data set [1] (setting [6]). Further, the ED50 in data set [1] (read-out: Extrasystoles ED50) was determined as 1.76 mg/kg; in data set [1] (setting [5]) it was 1.23 mg/kg; in data set [1] (setting [7]), 1.48 mg/kg. The “occurrence of heart rhythm disturbances on pre-treatment” value in data set [1] (rats) is “prevented or at least substantially delayed”.
As for `CC(C)N1CC2CC(CN(CCc3ccccc3)C2)C1` [N-isopropyl-N'-β-phenylethyl-bispidine], the “Anti-arrhythmic effect” value in data set [2] was 0.13. Also, the “Inotropic effect (Contraction force lowering) ED25” value in data set [2] amounted to 0.26. Also, the “Therapeutic Breadth (III/II)” value in data set [2] was 2.0. Moreover, the ED25 in data set [1] (read-out: Extrasystoles ED25) was around 1.8 mg/kg; in data set [1] (setting [4]), 1.41 mg/kg; in data set [1] (setting [6]) it was 1.7 mg/kg. Moreover, the ED50 in data set [1] (read-out: Extrasystoles ED50) was around 2.3 mg/kg; in data set [1] (setting [5]) it was 2.13 mg/kg; in data set [1] (setting [7]), 2.47 mg/kg. Further, in data set [1] (rats), the “occurrence of heart rhythm disturbances on pre-treatment” value is recorded as “prevented or at least substantially delayed”.
For `CCC[N+]12[C@H](O)[C@@H](CC)[C@@H]3C[C@H]1[C@@H]1N(C)c4ccccc4[C@]14C[C@H]2[C@@H]3[C@H]4O` [N-n-propylajmalin], in data set [2], the “Anti-arrhythmic effect” value was 0.0037, the “Inotropic effect (Contraction force lowering) ED25” value is reported as 0.0015 and the “Therapeutic Breadth (III/II)” value is reported as 0.4.
